# Values quoted from earlier work as cited in US20090196940A1, “COMPOSITIONS AND METHODS FOR SUPPORTING HEAT SHOCK FUNCTION” (priority 2007, published 2009).
# Key:
# [1] = system: heat shock proteins / HSF1; settings: in vitro, treated cells
# HSP70 = settings: mice, administration of schisandrin B
# [2] = system: cultured mouse skeletal cells (HSP72)
compound,measurement,setting,value
"C[C@@]12C[C@@]3(O)O[C@@H](O1)[C@]1(COC(=O)c4ccccc4)[C@H]3C[C@@]12O[C@@H]1O[C@H](CO)[C@@H](O)[C@H](O)[C@H]1O [paeoniflorin, Paeoniflorin]",levels of expression of heat shock proteins,[1],enhanced levels of expression of heat shock proteins
same,phosphorylation of HSF1,[1],resulted in phosphorylation of HSF1
"COc1cc2c(c(OC)c1OC)-c1c(cc3c(c1OC)OCO3)CC(C)C(C)C2 (stereo not drawn) [schisandrin B, Schisandrin B]",production of HSP70,HSP70,increase the production of HSP70
Geranylgeranylacetone,differentiation of myoblasts into myotubules,[2],facilitate the differentiation of myoblasts into myotubules
same,expression of HSP72,[2],up-regulated the expression of HSP72
same,muscular protein content,[2],increased muscular protein content in a dose-dependent manner
